# According to ChEMBL document CHEMBL1153343, “Liver X receptor agonists with selectivity for LXRbeta; N-aryl-3,3,3-trifluoro-2-hydroxy-2-methylpropionamides” (Bioorg Med Chem Lett, 2009):
# Activity calls are given as the source filed them. The calls are words filed in the database; no cut-off is given here.
# Assays:
# [1] = molecular target: T1, Oxysterols receptor LXR-beta (Homo sapiens, UniProt P55055); experiment: Agonist activity at LXRbeta ligand binding domain by FRET based SRC1 recruitment assay
# T1 sequence (P55055 whole entry): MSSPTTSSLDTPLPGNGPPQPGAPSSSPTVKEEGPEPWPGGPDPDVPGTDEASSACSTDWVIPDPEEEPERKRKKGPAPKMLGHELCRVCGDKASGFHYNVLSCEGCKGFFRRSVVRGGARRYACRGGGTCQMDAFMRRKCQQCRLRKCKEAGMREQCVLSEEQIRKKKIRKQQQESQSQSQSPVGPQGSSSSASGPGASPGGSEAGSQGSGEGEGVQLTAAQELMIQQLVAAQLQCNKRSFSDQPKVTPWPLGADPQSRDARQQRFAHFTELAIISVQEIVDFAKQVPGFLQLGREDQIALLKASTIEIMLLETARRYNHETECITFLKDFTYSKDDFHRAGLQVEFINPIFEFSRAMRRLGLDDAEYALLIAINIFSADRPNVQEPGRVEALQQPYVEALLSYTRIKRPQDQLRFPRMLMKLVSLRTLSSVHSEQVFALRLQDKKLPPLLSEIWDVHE
# [2] = molecular target: T2, Oxysterols receptor LXR-alpha (Homo sapiens, UniProt Q13133); experiment: Agonist activity at LXRalpha ligand binding domain by FRET based SRC1 recruitment assay
# T2 sequence (Q13133 whole entry): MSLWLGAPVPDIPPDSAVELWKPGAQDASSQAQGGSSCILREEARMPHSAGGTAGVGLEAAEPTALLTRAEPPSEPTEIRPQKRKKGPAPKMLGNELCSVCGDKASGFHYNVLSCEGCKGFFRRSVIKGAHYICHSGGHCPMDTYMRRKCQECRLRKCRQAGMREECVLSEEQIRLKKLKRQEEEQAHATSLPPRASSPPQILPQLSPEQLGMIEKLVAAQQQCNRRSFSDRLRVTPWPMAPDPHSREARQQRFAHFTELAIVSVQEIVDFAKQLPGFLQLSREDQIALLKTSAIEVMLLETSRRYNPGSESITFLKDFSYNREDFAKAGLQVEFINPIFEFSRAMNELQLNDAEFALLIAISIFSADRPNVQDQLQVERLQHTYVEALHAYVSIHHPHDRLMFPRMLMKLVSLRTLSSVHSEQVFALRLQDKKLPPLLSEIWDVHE
# [3] = molecular target: T1, Oxysterols receptor LXR-beta; experiment: Agonist activity at human LXRbeta expressed in human SH-SY5Y cells co-transfected with Gal4-LBD after 24 hrs by luciferase reporter gene assay; format: functional, cell-based
# [4] = Solubility in 0.1 M phosphate buffer at pH 7.4 at 100 uM after 24 hrs by UV-TIC; format: physicochemical
# [5] = Permeability across human Caco-2 cell membrane; format: ADME, cell-based; conditions: read-out: permeability
# [6] = Clearance in po dosed rat; format: ADME, organism-based; conditions: in vivo
# [7] = system: Rattus norvegicus; experiment: Volume of distribution in po dosed rat; format: ADME, organism-based; conditions: in vivo
# [8] = Half life in po dosed rat; format: ADME, organism-based; conditions: in vivo
# [9] = Bioavailability in rat; format: ADME, organism-based; conditions: in vivo
# [10] = system: Mus musculus; experiment: Upregulation of ABCA1 mRNA level in mouse brain homogenates at 30 umol/kg, po daily once after 3 days relative to control; format: functional
# [11] = system: Mus musculus; experiment: Upregulation of ABCG1 mRNA level in mouse brain homogenates at 30 umol/kg, po daily once after 3 days relative to control; format: functional
# [12] = system: Mus musculus; experiment: Upregulation of SREBP-1c mRNA level in mouse liver at 30 umol/kg, po daily once after 3 days relative to control; format: functional
# [13] = system: Mus musculus; experiment: Upregulation of SREBP-1c mRNA level in mouse liver at 1.0 umol/kg, po daily once after 3 days relative to control; format: functional
# [14] = molecular target: T2, Oxysterols receptor LXR-alpha; experiment: Agonist activity at human LXRalpha expressed in human SH-SY5Y cells co-transfected with Gal4-LBD after 24 hrs by luciferase reporter gene assay; format: functional, cell-based
# [15] = molecular target: T3, Oxysterols receptor LXR-beta (Homo sapiens) (UniProt P55055); experiment: Agonist activity at human LXRbeta expressed in human U2OS cells co-transfected with Gal4-LBD after 24 hrs by luciferase reporter gene assay; format: functional, cell-based
# T3 sequence (whole entry): T1 sequence (P55055 whole entry)
# [16] = molecular target: T4, Oxysterols receptor LXR-alpha (Homo sapiens) (UniProt Q13133); experiment: Agonist activity at human LXRalpha expressed in human U2OS cells co-transfected with Gal4-LBD after 24 hrs by luciferase reporter gene assay; format: functional, cell-based
# T4 sequence (whole entry): T2 sequence (Q13133 whole entry)
smiles,measurement,setting,value
CN(c1ccc(NC(=O)C(C)(O)C(F)(F)F)c(Cl)c1)S(=O)(=O)c1ccc(C#N)cc1 (stereo not drawn),EC50,[1],2600 nM
same,EC50,[2],3400 nM
same,EC50,[3],2700 nM
same,"solubility at 24 h, 100 µM",[4],61 µM
same,Papp,[5],28 ×10⁻⁶ cm/s
same,CL/F,[6],24.6 mL/min/kg
same,Vd,[7],4.1 L/kg
same,half-life,[8],4.4 h
same,bioavailability,[9],39%
same,fold change (FC),[10],1.25
same,fold change (FC),[11],1.3
same,fold change (FC),[12],1.3
same,fold change (FC),[13],3.6
same,EC50,[14],5000 nM
same,Activity,[15],inactive
same,Activity,[16],inactive
"C[C@H](CC[C@@H]1OC1(C)C)[C@H]1CC[C@H]2[C@@H]3CC=C4C[C@@H](O)CC[C@]4(C)[C@H]3CC[C@]12C [24(S),25-EPOXYCHOLESTEROL]",EC50,[1],286 nM
same,EC50,[2],280 nM
same,EC50,[3],400 nM
CC(O)(C(=O)Nc1ccc(N(Cc2ccccc2)S(=O)(=O)c2ccccc2Cl)cc1Cl)C(F)(F)F (stereo not drawn),EC50,[1],880 nM
same,EC50,[2],> 100000 nM
same,EC50,[3],> 30000 nM
same,EC50,[14],> 30000 nM
CN(c1ccc(NC(=O)[C@](C)(O)C(F)(F)F)c(Cl)c1)S(=O)(=O)c1ccccc1,EC50,[1],1900 nM
same,EC50,[2],3300 nM
same,EC50,[3],959 nM
same,EC50,[14],5000 nM
COC(=O)CCc1ccc(S(=O)(=O)N(C)c2ccc(NC(=O)C(C)(O)C(F)(F)F)c(Cl)c2)cc1 (stereo not drawn),EC50,[1],3500 nM
same,EC50,[2],3500 nM
same,EC50,[3],> 30000 nM
same,EC50,[14],> 30000 nM
C=CCN(c1ccc(NC(=O)C(C)(O)C(F)(F)F)c(Cl)c1)S(=O)(=O)c1ccccc1Cl (stereo not drawn),EC50,[1],580 nM
same,EC50,[2],470 nM
same,EC50,[3],> 30000 nM
same,EC50,[14],> 30000 nM
CN(c1ccc(NC(=O)[C@](C)(O)C(F)(F)F)c(Cl)c1)S(=O)(=O)c1ccccc1Cl,EC50,[1],626 nM
same,EC50,[3],813 nM
same,EC50,[14],1820 nM
same,Activity,[15],inactive
same,Activity,[16],inactive
Cc1ccc(S(=O)(=O)N(C)c2ccc(NC(=O)[C@](C)(O)C(F)(F)F)c(Cl)c2)cc1,EC50,[1],1500 nM
same,EC50,[2],1970 nM
same,EC50,[3],1590 nM
same,EC50,[14],5000 nM
COC(=O)c1ccc(S(=O)(=O)N(C)c2ccc(NC(=O)C(C)(O)C(F)(F)F)c(Cl)c2)cc1 (stereo not drawn),EC50,[1],2320 nM
same,EC50,[2],3100 nM
same,EC50,[3],3810 nM
same,EC50,[14],3610 nM
CN(c1ccc(NC(=O)C(C)(O)C(F)(F)F)c(Cl)c1)S(=O)(=O)c1ccc(CCC(=O)O)cc1 (stereo not drawn),EC50,[1],> 100000 nM
same,EC50,[2],> 100000 nM
same,EC50,[3],> 30000 nM
same,EC50,[14],> 30000 nM
O=C(O)Cc1cccc(OCCCN(Cc2cccc(C(F)(F)F)c2Cl)CC(c2ccccc2)c2ccccc2)c1,EC50,[1],78 nM
same,EC50,[2],280 nM
same,EC50,[3],130 nM
same,EC50,[14],310 nM
CC(O)(C(=O)Nc1ccc(N(CC2CC2)S(=O)(=O)c2ccccc2Cl)cc1Cl)C(F)(F)F (stereo not drawn),EC50,[1],940 nM
same,EC50,[2],1080 nM
same,EC50,[3],> 30000 nM
same,EC50,[14],> 30000 nM
CN(c1ccc(NC(=O)C(C)(O)C(F)(F)F)c(Cl)c1)S(=O)(=O)c1ccc(C(=O)O)cc1 (stereo not drawn),EC50,[1],> 100000 nM
same,EC50,[2],> 100000 nM
same,EC50,[3],> 30000 nM
same,EC50,[14],> 30000 nM
CCN(c1ccc(NC(=O)C(C)(O)C(F)(F)F)c(Cl)c1)S(=O)(=O)c1ccccc1Cl (stereo not drawn),EC50,[1],790 nM
same,EC50,[2],1000 nM
same,EC50,[3],7500 nM
same,EC50,[14],8500 nM
